The record followed here is the NIST ThermoML archive (doi:10.1016/j.jct.2016.12.033).

For series [1] the following is noted: 101.3 kPa, Liquid; for viscosity: Capillary tube (Ostwald / Ubbelohde) method; for mass density: Pycnometric method.
Series [2] is described as follows: mn = molality of the nth substance listed, in mol/kg. The conditions noted are these: 101.3 kPa, Liquid, m2 = 0; for viscosity: Capillary tube (Ostwald / Ubbelohde) method; for mass density: Pycnometric method.

Structures are written as SMILES. ± gives the expanded uncertainty stated by the source.

With `O` [water], the viscosity (usually the resistance of a fluid to flow) in series [1] (275.15 K) came to 1.674 ± 0.035 mPa·s; in series [1] (277.15 K), 1.567 ± 0.032 mPa·s; in series [1] (279.15 K), 1.472 ± 0.03 mPa·s. For the same compound, the figures for the mass density in series [1] (275.15 K), in series [1] (277.15 K) and in series [1] (279.15 K) were 999.94 ± 0.28 kg/m3, 999.97 ± 0.28 kg/m3 and 999.94 ± 0.28 kg/m3, respectively.
With `O` [water] + O=C1O[C@H]([C@@H](O)CO)C([O-])=C1O.[Na+], the viscosity was determined as 1.674 ± 0.035 mPa·s in series [2] (275.15 K), 1.567 ± 0.032 mPa·s in series [2] (277.15 K) and 1.472 ± 0.03 mPa·s in series [2] (279.15 K). Moreover, the values for the mass density in series [2] (275.15 K), in series [2] (277.15 K) and in series [2] (279.15 K) were 999.94 ± 0.29 kg/m3, 999.97 ± 0.28 kg/m3 and 999.94 ± 0.28 kg/m3, respectively.
For `O` [water] + Cc1ncc(CO)c(CO)c1O.Cl, the viscosity is recorded as 1.674 ± 0.035 mPa·s in series [2] (275.15 K), 1.567 ± 0.032 mPa·s in series [2] (277.15 K) and 1.472 ± 0.03 mPa·s in series [2] (279.15 K). Besides, the mass density (commonly mass per unit of volume) in series [2] (275.15 K) is 999.94 ± 0.28 kg/m3; in series [2] (277.15 K), 999.97 ± 0.28 kg/m3; in series [2] (279.15 K), 999.94 ± 0.27 kg/m3.
Regarding `O` [water] + Cc1ncc(C[n+]2csc(CCO)c2C)c(N)n1.Cl.[Cl-], the viscosity came out at 1.674 ± 0.035 mPa·s in series [2] (275.15 K), 1.567 ± 0.032 mPa·s in series [2] (277.15 K) and 1.472 ± 0.03 mPa·s in series [2] (279.15 K). The mass density in series [2] (275.15 K) was 999.94 ± 0.28 kg/m3; in series [2] (277.15 K), 999.97 ± 0.28 kg/m3; in series [2] (279.15 K), 999.94 ± 0.28 kg/m3.
